Usually pIC50 stands for the IC50 on a negative log10 scale, so that one unit is a factor of ten.

pIC50: −log10 of the molar value.

Experiment [1] can be described thus: Antiproliferative activity against rat HSC-T6 cells assessed as reduction in cell viability incubated for 48 hrs by MTT assay. The experiment is classed as functional, cell-based. Conditions: HSC-T6, 48 h. (In general: Tetrazolium assays rely on reduction of a dye to a coloured formazan, in cell work by metabolically active cells.)
The species named for experiment [2] is Mus musculus. As to the kind of experiment: Hepatoprotective activity in CCl4-induced toxicity in liver injured mouse assessed as increase in inhibition of liver damage relative to control. Type of experiment: functional. Also noted: concentration or dose not given beside the values.
The test system of experiment [3] is Mus musculus. As to the kind of experiment: Hepatoprotective activity against D-GaIN/CCl4 induced liver injury mouse model assessed as reduction in GPT level at 30 microg/kg, iv relative to control. Type of experiment: functional. Set-up: scale not given: the % may be the effect or the level left. The note with it: dose 30 µg/kg.
The subject of another experiment is Hepatocyte. As to the kind of experiment: Hepatoprotective activity against D-GaIN/TNFalpha-induced cell death in mouse hepatocyte at 100 uM relative to control. The experiment is classed as functional, cell-based. Conditions: Mus musculus, Hepatocyte.
The next experiment deals with L02. Briefly: Hepatoprotective activity against D-GaIN-induced cell damage in human HL7702 cells assessed as increase in cell survival at 10 uM relative to control. The experiment is classed as functional.

With `C[C@@H]1O[C@@H](O[C@H]2[C@H](OC(=O)[C@]34CCC(C)(C)C[C@H]3C3=CC[C@@H]5[C@@]6(C)C[C@H](O)[C@H](O[C@@H]7O[C@H](CO)[C@@H](O)[C@H](O)[C@H]7O)C(CO)(CO)[C@@H]6CC[C@@]5(C)[C@]3(C)C[C@H]4O)OC[C@H](O)[C@@H]2O)[C@H](O)[C@H](O)[C@H]1O[C@@H]1OC[C@@H](O)[C@H](O[C@@H]2OC[C@](O)(CO)[C@H]2O)[C@H]1O` [PLATYCODIN D], the pIC50 in experiment [1] was 5.75. On to `C[C@H]1[C@H](C)CC[C@]2(C(=O)O)CC[C@]3(C)C(=CC(=O)[C@@H]4[C@@]5(C)C[C@@H](O)[C@H](O)[C@@](C)(CO)[C@@H]5CC[C@]43C)[C@H]12`, for which the Activity in the experiment listed under Mus musculus [2] was 25.6%.

Regarding `CC(C)=CCC[C@](C)(O)[C@H]1CC[C@]2(C)[C@@H]1[C@H](O)C[C@@H]1[C@@]3(C)CC[C@H](O[C@@H]4O[C@H](CO)[C@@H](O)[C@H](O)[C@H]4O[C@@H]4O[C@H](CO)[C@@H](O)[C@H](O)[C@H]4O)C(C)(C)[C@@H]3CC[C@]12C`, the Activity in the experiment on Mus musculus [3] is on record as 63%. In the case of `CC(=O)OC[C@@]1(C)[C@@H]2CC[C@]3(C)[C@H](C(=O)C=C4[C@@H]5[C@@H](C)[C@H](C)CC[C@]5(C(=O)O)CC[C@]43C)[C@@]2(C)CC(=O)[C@@H]1O`, in the experiment listed under Mus musculus [2], the Activity came to 35.9%. Regarding `CC(C)=CCC[C@@](C)(O)[C@H]1CC[C@]2(C)[C@@H]1[C@H](O)C[C@@H]1[C@@]3(C)CC[C@H](O)C(C)(C)[C@@H]3[C@@H](O[C@@H]3O[C@H](CO)[C@@H](O)[C@H](O)[C@H]3O[C@@H]3O[C@@H](C)[C@H](O)[C@@H](O)[C@H]3O)C[C@]12C`, in the experiment on Mus musculus [3], the Activity came to 50%.

On to `CC1(C)CC[C@]2(C(=O)O)[C@H](O)C[C@]3(C)C(=CC[C@@H]4[C@@]5(C)C[C@H](O)[C@H](O[C@@H]6O[C@H](CO)[C@@H](O)[C@H](O)[C@H]6O)C(CO)(CO)[C@@H]5CC[C@]43C)[C@@H]2C1`, for which, in experiment [1], the pIC50 is 4.87. `C[C@H]1[C@H](C)CC[C@]2(CO)CC[C@]3(C)C(=CC[C@@H]4[C@@]5(C)C[C@@H](O)[C@H](O)[C@@](C)(CO)[C@@H]5CC[C@]43C)[C@H]12`: in the experiment filed under Mus musculus [2], the Activity was determined as 39.7%. With `CC1=C2C3=CC[C@@H]4[C@@]5(C)C[C@@H](O)[C@H](O)[C@@](C)(CO)[C@@H]5CC[C@@]4(C)[C@]3(C)CC[C@@]2(C(=O)O)CC[C@H]1C`, the pIC50 in the experiment with Hepatocyte was 4.29. On to `CC(C)=CCC[C@](C)(O)[C@H]1CC[C@]2(C)[C@@H]1[C@H](O)C[C@@H]1[C@@]3(C)CC[C@H](O[C@@H]4O[C@H](CO)[C@@H](O)[C@H](O)[C@H]4O)C(C)(C)[C@@H]3CC[C@]12C` [GINSENOSIDE RH2], for which the Activity in the experiment with Mus musculus [3] is given as 31%.

On to `CC(C)=CCC[C@@](C)(O)[C@H]1CC[C@]2(C)[C@@H]1[C@H](O)C[C@@H]1[C@@]3(C)CC[C@H](O[C@@H]4O[C@H](CO)[C@@H](O)[C@H](O)[C@H]4O[C@@H]4O[C@H](CO)[C@@H](O)[C@H](O)[C@H]4O)C(C)(C)[C@@H]3CC[C@]12C`, for which the Activity with Mus musculus [3] was 34%. On to `COC(=O)[C@]12CC[C@@H](C)[C@H](C)[C@H]1C1=CC[C@@H]3[C@@]4(C)C[C@@H](OC(C)=O)[C@H](O)[C@@](C)(COC(C)=O)[C@@H]4CC[C@@]3(C)[C@]1(C)CC2`, for which the Activity in the experiment filed under Mus musculus [2] stood at 54.2%. With `COC(=O)[C@]12CC[C@@H](C)[C@H](C)[C@H]1C1=CC[C@@H]3[C@@]4(C)CC(=O)[C@H](O)[C@@](C)(COC(C)=O)[C@@H]4CC[C@@]3(C)[C@]1(C)CC2`, the Activity in the experiment listed under Mus musculus [2] was determined as 46.4%.

On to `CC(=O)OC[C@@]1(C)[C@@H]2CC[C@]3(C)[C@H](C(=O)C=C4[C@@H]5[C@@H](C)[C@H](C)CC[C@]5(C(=O)O)CC[C@]43C)[C@@]2(C)CC(=O)[C@@H]1OC(C)=O`, for which the Activity in the experiment filed under Mus musculus [2] came to 22%.

As for `CC(CC(=O)C[C@@H](C)[C@H]1C[C@H](O)[C@@]2(C)C3=C(C(=O)C[C@]12C)[C@@]1(C)CC[C@H](O)C(C)(C)[C@@H]1C[C@@H]3O)C(=O)O` (stereo not given in full), the Activity with L02 was determined as 76%. Take `CC(C)=CCC[C@](C)(O)[C@H]1CC[C@]2(C)[C@@H]1[C@H](O)C[C@@H]1[C@@]3(C)CC[C@H](O)C(C)(C)[C@@H]3[C@@H](O[C@@H]3O[C@H](CO)[C@@H](O)[C@H](O)[C@H]3O[C@@H]3O[C@H](CO)[C@@H](O)[C@H](O)[C@H]3O)C[C@]12C` [GINSENOSIDE RF]: in the experiment with Mus musculus [3], the Activity is given as 77%. As to `CC1(C)CC[C@]2(N)C(=O)C[C@]3(C)C(=CC[C@@H]4[C@@]5(C)C[C@H](O)[C@H](O)C(CO)(CO)[C@@H]5CC[C@]43C)[C@@H]2C1`, in experiment [1], the pIC50 is 5.28.

Take `C/C(=C/C(=O)CC(C)C(=O)O)[C@H]1CC(=O)[C@@]2(C)C3=C(C(=O)C[C@]12C)[C@@]1(C)CC[C@H](O)C(C)(C)[C@@H]1C[C@@H]3O` (stereo not given in full): the Activity in the experiment with L02 stood at 65%. For the molecule `CC1(C)CC[C@]2(N)C(=O)C[C@]3(C)C(=CC[C@@H]4[C@@]5(C)C[C@H](O)[C@H](O[C@@H]6O[C@H](CO)[C@@H](O)[C@H](O)[C@H]6O)C(CO)(CO)[C@@H]5CC[C@]43C)[C@@H]2C1`, the pIC50 in experiment [1] is 4.16. Regarding `C[C@@H]1O[C@@H](O[C@H]2[C@H](OC(=O)[C@]34CCC(C)(C)C[C@H]3C3=CC[C@@H]5[C@@]6(C)C[C@H](O)[C@H](O[C@@H]7O[C@H](CO)[C@@H](O)[C@H](O)[C@H]7O)C(CO)(CO)[C@@H]6CC[C@@]5(C)[C@]3(C)C[C@H]4O)OC[C@H](O)[C@@H]2O)[C@H](O)[C@H](O)[C@H]1O[C@@H]1OC[C@@H](O)[C@H](O)[C@H]1O`, the negative logarithm of the IC50 (pIC50) in experiment [1] is 5.08. `C/C(=C\CCC(C)(O)[C@H]1C[C@H](O)[C@@]2(C)C3=C(C(=O)C[C@]12C)[C@@]1(C)CC[C@H](O)C(C)(C)[C@@H]1C[C@@H]3O)C(=O)O` (stereo not given in full): in the experiment with L02, the Activity came to 43%. With `C/C(CC(=O)CC(C)C(=O)O)=C1/CC(=O)[C@@]2(C)C3=C(C(=O)C[C@]12C)[C@@]1(C)CC[C@H](O)C(C)(C)[C@@H]1CC3=O` (stereo not given in full), in the experiment on L02, the Activity is 55%. With `C[C@@H]1O[C@@H](O[C@H]2[C@H](OC(=O)[C@]34CCC(C)(C)C[C@H]3C3=CC[C@@H]5[C@@]6(C)C[C@H](O)[C@H](O[C@@H]7O[C@H](CO)[C@@H](O)[C@H](O)[C@H]7O)[C@](C)(CO)[C@@H]6CC[C@@]5(C)[C@]3(C)C[C@H]4O)OC[C@H](O)[C@@H]2O)[C@H](O)[C@H](O)[C@H]1O[C@@H]1OC[C@@H](O)[C@H](O[C@@H]2OC[C@](O)(CO)[C@H]2O)[C@H]1O`, the pIC50 in experiment [1] was 5.98. With `CC(C)=CCC[C@](C)(O[C@@H]1O[C@H](CO)[C@@H](O)[C@H](O)[C@H]1O)[C@H]1CC[C@]2(C)[C@@H]1[C@H](O)C[C@@H]1[C@@]3(C)CC[C@H](O)C(C)(C)[C@@H]3CC[C@]12C`, the Activity in the experiment with Mus musculus [3] was 76%.

Consider `CC(CC(=O)C[C@@H](C)C1=CC(=O)[C@@]2(C)[C@@H]3C(=O)C[C@H]4C(C)(C)[C@@H](O)CC[C@]4(C)[C@H]3C(=O)C[C@]12C)C(=O)O` (stereo not given in full), for which the Activity in the experiment on L02 was determined as 75%. Same read-out and setting: the figure for `CC(=O)[C@H]1CC(=O)[C@@]2(C)C3=C(C(=O)C[C@]12C)[C@@]1(C)CCC(=O)C(C)(C)[C@@H]1C[C@@H]3O` is 58%.

(Values after ChEMBL document CHEMBL5260832, “Hepatoprotective natural triterpenoids” (Eur J Med Chem, 2018).)
